Read-outs that look alike come from different tables or passages of the source.
Key:
HIV-1 IIIB strain = test: Anti-HIV activity: protection of HIV-infected MT-4 cells from virus-induced cell lesions; format: cell-based; settings: for EC50: Human immunodeficiency virus 1, IIIB
Protocol: (§1) Anti-virus activity of cells in vitro was determined by Rega Institute for Medical of […] Katholleke University, consisting mainly: inhibitory activity towards HIV-infected MT-4 cells and cell toxicity. The method is described below: exert the compound on the HIV-infected ME-4 cells, and determine the protection of the drug on the cell lesions induced by HIV at varied HIV-infection intervals, calculate the half effective concentration IC50, the required concentration that protect 50% of cells from cell lesions induced by HIV. Toxicity determination is carried out in parallel with anti-HIV activity experiments, also in the cultured MT-4 cells, determine the CC50, the concentration that leads 50% of uninfected cells to cell lesions, and calculate the selectivity index SI=CC50/IC50 with the MTT method.
(§2) Anti-HIV activity of various compounds is monitored by the inhibitory efficiency of drugs on the cell lesions induced by HIV. Carry out cell culture with MT-4 cells. The adopted virus strains are HIV-1 IIIB strain and drug-resistant viral strain of […].
(§3) The detailed operation is as follows: the compound is dissolved with DMSO or water and diluted with phosphate buffer saline, 3×10^5 MT-4 cells are cultured with 100 μL various concentrations of compounds for 1 h, then 100 μL suitable virus dilution is added to the compound, and the cells are cultured at 37° C. for 1 h. After being washed for 3 times, the cells are suspended again in the culture media containing or not compounds individually. Subsequently, the cells are transferred to the atmosphere containing 5% CO2 and cultured for 7 days at 37° C., and culture media containing or not compounds are used to replace or supplement the culture solution on the third day after infection. Kinds of culture conditions should be duplicated. The cell lesions caused by virus are monitored with reverse light microscopy everyday. Typically, the virus dilution applied in the present experiments generally cause cell lesion on the fifth day after infection. […] It should be emphasized that, when the compound is poorly water-soluble and can only be dissolved in DMSO, the ratio of DMSO to water is generally below 10% (the final concentration of DMSO in MT-4 cell culture media is smaller than 2%). Because DMSO can influence the anti-virus activity of the tested compounds, blank tests on the solution containing the same concentration of DMSO should be conducted in parallel. Additionally, the final concentration of DMSO is far below the concentration required to influence the replication of HIV-1 in T cells.

[1] = system: drug-resistant viral strain of L103N+Y181C; test: Anti-HIV activity in MT-4 cells, drug-resistant viral strain; format: cell-based, HIV-1
Protocol: as §1, §2, §3

[2] = Cell toxicity in uninfected MT-4 cells (MTT method); format: cell-based; settings: human
Protocol: as §1, §3

HIV-1 RT = biological target: T1, HIV-1 RT (Human immunodeficiency virus type 1 group M subtype B, UniProt P03366); test: In vitro anti HIV-1 reverse transcriptase screening (Biotin-dUTP, OD450); format: biochemical
T1 construct: Screening for in vitro activity of anti HIV-1 reverse transcriptase (HIV-1 RT); made in house

[3] = Human immunodeficiency virus 1, MT4, read-out: EC50 103N + 181C, MT-4 cells, Table 2
[4] = HIV-1 IIIB, MT-4 cells, Table 1
[5] = MT4, read-out: EC50 HIV-1(IIIB)
[6] = Human immunodeficiency virus 1, MT4, read-out: EC50 103N + 181C, MT-4 cells, Table 1

| SMILES | EC50 (HIV-1 IIIB strain; MT4, read-out: EC50 WT(IIIB)) | SI (Selectivity index, the ratio of CC50/IC50) (HIV-1 IIIB strain; WT(IIIB), Table 2) | EC50 [1, 3] | CC50 at 7 days ([2]; uninfected MT-4 cells, Table 2) | IC50 (HIV-1 RT) | SI (Selectivity index, the ratio of CC50/IC50) (HIV-1 IIIB strain; [4]) | EC50 (HIV-1 IIIB strain; [5]) | EC50 [1, 6] | CC50 at 7 days ([2]; uninfected MT-4 cells, Table 1) | also measured |
| --- | --- | --- | --- | --- | --- | --- | --- | --- | --- | --- |
| COc1c(Oc2ccnc(Nc3ccc(C#N)cc3)n2)ccc2cc(C#N)ccc12 [Compound 20] | 1.2 nM | ≧134032 | 380 nM | 161000 nM | 2290 nM | – | – | – | – | – |
| N#Cc1ccc(Nc2nccc(Oc3ccc4cc(C#N)ccc4c3Cl)n2)cc1 [Compound 23] | 1.8 nM | 47964 | 700 nM | 86300 nM | – | – | – | – | – | – |
| COc1cc2cc(C#N)ccc2c(Cl)c1Oc1ccnc(Nc2ccc(C#N)cc2)n1 [Compound 24] | 0.6 nM | ≧25701 | 150 nM | 15400 nM | – | – | – | – | – | – |
| CNc1cc(Oc2cccc3cccnc23)nc(Nc2ccc(C#N)cc2)n1 [Compound 3] | – | – | – | – | – | 6089 | 8.9 nM | ≥ 54200 nM | 54200 nM | – |
| COc1cc2cc(C#N)ccc2cc1Oc1ccnc(Nc2ccc(C#N)cc2)n1 [Compound 21] | 0.9 nM | >158228 | – | 142000 nM | 1320 nM | – | – | – | – | – |
| COc1cc2cc(C#N)ccc2c(OC)c1Oc1ccnc(Nc2ccc(C#N)cc2)n1 [Compound 22] | 0.8 nM | ≧25000 | 160 nM | 20000 nM | 94.5 nM | – | – | – | – | – |
| O=C1Nc2ccc(Cl)cc2[C@@](C#CC2CC2)(C(F)(F)F)O1 [EFV, efavirenz, reference compound] | – | >1434 | 560 nM | – | – | >1434 | – | 560000 nM | – | SI (Selectivity index, the ratio of CC50/IC50) (HIV-1 IIIB strain; HIV-1 IIIB, MT-4 cells, Table 3): >2174; EC50 (HIV-1 IIIB strain; MT4, MT-4 cells, Table 1, read-out: EC50 HIV-1(IIIB)): 3 nM; EC50 (HIV-1 IIIB strain; MT4, MT-4 cells, Table 2, read-out: EC50 WT(IIIB)): 3 nM; CC50 at 7 days ([2]; Table 1): 4300 nM; CC50 at 7 days ([2]; Table 3): > 6340 nM |
| COc1cc(Oc2cccc3cccnc23)nc(Nc2ccc(C#N)cc2)n1 [Compound 4] | – | – | – | – | – | 3299 | 12.8 nM | ≥ 42200 nM | 42200 nM | – |
| N#Cc1ccc(Nc2nccc(Oc3cccc4cccnc34)n2)cc1 [Compound 1] | – | – | – | – | – | 13393 | 2.9 nM | ≥ 38800 nM | 38800 nM | – |
